Paper PMC2527972 (Science (New York, N.Y.), 2008)

Biological target: T1, MetNI (Escherichia coli, UniProt P30750)
T1 sequence (P30750 1-343): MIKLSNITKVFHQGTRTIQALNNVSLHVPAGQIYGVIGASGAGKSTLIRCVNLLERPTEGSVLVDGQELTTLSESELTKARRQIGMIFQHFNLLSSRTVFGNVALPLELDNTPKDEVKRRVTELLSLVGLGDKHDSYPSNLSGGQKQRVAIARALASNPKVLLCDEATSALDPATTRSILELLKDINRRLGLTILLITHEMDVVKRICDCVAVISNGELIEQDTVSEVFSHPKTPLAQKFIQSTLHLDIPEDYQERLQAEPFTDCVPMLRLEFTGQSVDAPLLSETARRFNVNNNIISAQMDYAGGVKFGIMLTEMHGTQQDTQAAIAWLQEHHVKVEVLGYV
T1 sequence (P31547 1-217 partner): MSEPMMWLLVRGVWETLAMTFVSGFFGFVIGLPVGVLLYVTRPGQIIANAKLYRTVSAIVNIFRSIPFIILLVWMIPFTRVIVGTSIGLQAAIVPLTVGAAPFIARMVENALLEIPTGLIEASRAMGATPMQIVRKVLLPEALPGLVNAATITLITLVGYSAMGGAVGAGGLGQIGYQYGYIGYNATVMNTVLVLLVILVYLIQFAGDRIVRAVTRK
Test: ATPase activity, phosphate production assay
Type: biochemical

IC50: ~30 µM
Structure (SMILES): CSCC[C@H](N)C(=O)O [L-methionine]
